Assay [1] deals with MDA-MB-435 cells. As to the kind of experiment: Sulforhodamine B. In kind it is cell-based.
The target in a further assay is Bovine brain tubulin (Bos taurus, UniProt P81947+Q6B856). As to the kind of experiment: Quantitative inhibition of tubulin assembly. In kind it is biochemical.
The target of assay [2] is tubulin (colchicine site) (Bos taurus, UniProt P81947+Q6B856). Put plainly: Inhibition of [3H]colchicine binding to tubulin. Also on record: species or system bovine. To be noted: read-out: Inhibition of colchicine binding % Inhibition ± SD.
tubulin (colchicine site), sequence (Q6B856 whole entry): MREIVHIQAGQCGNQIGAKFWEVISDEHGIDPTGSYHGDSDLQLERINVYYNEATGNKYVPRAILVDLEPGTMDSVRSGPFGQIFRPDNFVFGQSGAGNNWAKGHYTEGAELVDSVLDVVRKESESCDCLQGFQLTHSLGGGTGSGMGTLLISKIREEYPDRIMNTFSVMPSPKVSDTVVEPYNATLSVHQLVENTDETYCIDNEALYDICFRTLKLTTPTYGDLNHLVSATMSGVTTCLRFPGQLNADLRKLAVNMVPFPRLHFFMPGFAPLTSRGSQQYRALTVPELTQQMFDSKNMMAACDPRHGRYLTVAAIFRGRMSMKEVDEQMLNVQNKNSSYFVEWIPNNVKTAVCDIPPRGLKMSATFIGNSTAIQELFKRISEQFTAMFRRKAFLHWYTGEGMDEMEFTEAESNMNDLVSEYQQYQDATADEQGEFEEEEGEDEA
tubulin (colchicine site), sequence (P81947 whole entry): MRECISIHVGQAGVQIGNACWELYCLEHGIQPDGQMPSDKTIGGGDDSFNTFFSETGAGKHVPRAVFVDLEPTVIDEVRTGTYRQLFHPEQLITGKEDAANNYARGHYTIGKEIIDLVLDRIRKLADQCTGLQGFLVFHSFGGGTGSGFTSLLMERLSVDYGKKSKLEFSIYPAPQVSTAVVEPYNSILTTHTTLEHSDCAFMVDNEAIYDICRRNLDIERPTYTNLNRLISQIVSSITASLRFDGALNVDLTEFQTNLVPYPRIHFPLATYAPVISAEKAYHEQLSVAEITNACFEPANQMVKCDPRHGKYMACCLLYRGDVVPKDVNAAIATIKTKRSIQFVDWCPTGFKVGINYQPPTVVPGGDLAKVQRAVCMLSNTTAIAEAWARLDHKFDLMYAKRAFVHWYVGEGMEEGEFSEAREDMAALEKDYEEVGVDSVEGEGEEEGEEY
Another assay concerns A-10 cells. As to the kind of experiment: Effects on cellular microtubules. In kind it is cell-based. To be noted: for Effect on interphase microtubules: 18 h, cell-based phenotypic screen, Fig. 3.
Assay [3] deals with purified bovine brain tubulin. Put plainly: In vitro tubulin polymerization. In kind it is biochemical. To be noted: initial study, Fig. 5; 10% glycerol, 3 mg/mL purified tubulin, 10 mM GTP.
For another assay, the system named is WT βIII. As to the kind of experiment: SRB antiproliferative assay, βIII-tubulin expressing line. In kind it is cell-based. To be noted: for Rr (relative resistance), effect of βIII-tubulin on drug sensitivity: IC50 of the WT βIII cell line divided by IC50 of the parental HeLa cells.
The test system of a further assay is 60 cancer cell lines. Put plainly: NCI 60 tumor cell line panel, summary over the panel.
Assay [4] has as its system MDA-MB-435 cells. Put plainly: Cell cycle analysis by flow cytometry. In kind it is cell-based. To be noted: MDA-MB-435, 24 h, 850 nM 1, 45 nM (±)-3•HCl.
A further assay relates to SK-OV-3. Put plainly: SRB antiproliferative assay, parental line of Pgp isogenic pair. In kind it is cell-based. To be noted: Homo sapiens, SK-OV-3, read-out: IC50 (SD) SK-OV-3.
Another assay deals with SK-MEL-5. As to the kind of experiment: NCI 60 cell line panel tumor cell growth inhibition. To be noted: Homo sapiens.
The subject of another assay is A498. Described as above. To be noted: Homo sapiens.
The next assay relates to SF-295. The description is as above. To be noted: Homo sapiens.
The next assay relates to SK-OV-3 MDR-1-6/6. Put plainly: SRB antiproliferative assay, Pgp overexpressing. In kind it is cell-based. To be noted: Homo sapiens, SK-OV-3, read-out: IC50 (SD) SK-OV-3 MDR-1-6/6.
In the next assay the test system is SW-620. Put plainly: NCI 60 cell line panel tumor cell growth inhibition. To be noted: Homo sapiens.
For a further assay, the system named is SNB-75. Described as above. To be noted: Homo sapiens.
For another assay, the system named is KM12. The description is as above. To be noted: Homo sapiens.
A further assay concerns NCI-H522. Described as above. To be noted: Homo sapiens.
A further assay deals with UACC-62. Described as above. To be noted: Homo sapiens.
The test system of another assay is HCT-15. Described as above. To be noted: Homo sapiens.
The subject of a further assay is K-562. Described as above. To be noted: Homo sapiens, K562.
A further assay deals with RXF 393. The assay is described as above. To be noted: Homo sapiens.
A further assay has as its system HL-60(TB). The assay is described as above. In kind it is cell-based. To be noted: Homo sapiens.
For another assay, the system named is MDA-MB-435. The assay is described as above. To be noted: Homo sapiens.
A further assay concerns MCF7. The assay is described as above. To be noted: Homo sapiens.
The test system of another assay is OVCAR-3. The description is as above. To be noted: Homo sapiens.
Another assay deals with NCI/ADR-RES. The description is as above. To be noted: Homo sapiens.
The test system of a further assay is MDA-MB-468. The assay is described as above. To be noted: Homo sapiens.
The next assay deals with SR. Described as above. To be noted: Homo sapiens.
Another assay relates to HeLa. Put plainly: SRB antiproliferative assay, parental line of βIII-tubulin isogenic pair. In kind it is cell-based. To be noted: Homo sapiens, read-out: IC50 (SD) HeLa.
The test system of the next assay is SK-MEL-28. Put plainly: NCI 60 cell line panel tumor cell growth inhibition. To be noted: Homo sapiens.
The next assay has as its system HS 578T. The assay is described as above. To be noted: Homo sapiens.
[5] abbreviates: Homo sapiens, MDA-MB-435, read-out: IC50±SD (MDA-MB-435).

Structures can show the parent of a compound that is named as a salt. Where two headings read alike, the source gives them in different places. Bounds are passed on as bounds.

Bovine brain tubulin, sequence (Q6B856 whole entry): as the sequence (Q6B856 whole entry) above
Bovine brain tubulin, sequence (P81947 whole entry): as the sequence (P81947 whole entry) above

As to `COc1cccc(N(C)c2nc(C)nc3c2CC(C)C3)c1.Cl` (racemic) [(±)-5•HCl, N-(3-Methoxyphenyl)-N,2,6-trimethyl-6,7-dihydro-5H-cyclopenta[d]pyrimidin-4-aminium chloride], the IC50 in the assay on MDA-MB-435 cells [1] (setting [5]) was found to be 153 ± 11.1 nM. Further, the “fold less potent than (±)-3•HCl” value with MDA-MB-435 cells [1] (comparison of 3′-OCH3 with 4′-OCH3 analog, Table 2) was “about 9 fold”.
In the case of `COc1ccc(/C=C\c2cc(OC)c(OC)c(OC)c2)cc1OP(=O)(O)O` [CA4P, combretastatin A-4 phosphate, reference compound], the IC50 against Bovine brain tubulin is 1000 ± 90 nM. In addition, in assay [2], the inhibition at 1 µM turned out to be 88 ± 2% and the inhibition at 5 µM was 99 ± 0.2%.
Consider “N-(4-Methoxyphenyl)-2,6-dimethyl-6,7-dihydro-5H-cyclopenta[d]pyrimidin-4-amine [(±)-4]”, for which the EC50 in the assay with A-10 cells (read-out: EC50 for microtubule depolymerization, concentration required to cause 50% loss of cellular microtubules, A-10 cells) is over 40 µM. The IC50 with MDA-MB-435 cells [1] (read-out: IC50±SD (MDA-MB-435), inhibition of proliferation, SRB assay) was over 10000 nM.
Take `COc1ccc(N(C)c2nc(C)nc3[nH]ccc23)cc1` [Compound 1, N-(4-Methoxyphenyl)-N,2-dimethyl-7H-pyrrolo[2,3-d]pyrimidin-4-amine]: the “Effect on interphase microtubules” value in the assay with A-10 cells (A-10 cells) is “dramatic reorganization of the interphase microtubule network”. Besides, the “Effect on polymerization of purified tubulin” value in assay [3] was “potent inhibitors of purified tubulin assembly”. Besides, the “Rr (relative resistance), effect of βIII-tubulin on drug sensitivity” value in the assay on WT βIII is 0.6–0.7. Besides, the GI50 in the assay with 60 cancer cell lines is under 500 nM. Further, the “Cell cycle effect” value in the assay on MDA-MB-435 cells [4] is recorded as “mitotic accumulation”. Also, the IC50 against Bovine brain tubulin was determined as 2600 ± 50 nM.
As for `COc1ccc(N(C)c2nc(C)nc3c2CC(C)C3)cc1.Cl` (racemic) [(±)-3•HCl, N-(4-Methoxyphenyl)-N,2,6-trimethyl-6,7-dihydro-5H-cyclopenta[d]pyrimidin-4-aminium chloride], the IC50 worked out at 38.6 ± 3.1 nM with SK-OV-3; 44.4 ± 3.2 nM in the assay on SK-OV-3 MDR-1-6/6; 23.9 ± 1.7 nM with WT βIII (read-out: IC50 (SD) WT βIII); 17 ± 0.7 nM in the assay on MDA-MB-435 cells [1] (setting [5]); 1900 ± 10 nM against Bovine brain tubulin; 37.3 ± 4.1 nM in the assay with HeLa. In addition, the “Effect on interphase microtubules” value in the assay on A-10 cells (A-10 cells) is listed as “dramatic reorganization of the interphase microtubule network”. Besides, the 50% growth inhibitory concentration (GI50) in the assay on SK-MEL-5, with A498, in the assay on SF-295, with SW-620, in the assay with SNB-75 and in the assay on KM12 was under 10 nM throughout. The GI50 with NCI-H522, with UACC-62, in the assay on HCT-15, in the assay with K-562, in the assay with RXF 393 and with HL-60(TB) was under 10 nM each time. Besides, the GI50 was under 10 nM in the assay with MDA-MB-435; under 10 nM in the assay with MCF7; under 10 nM in the assay with OVCAR-3; under 30 nM with 60 cancer cell lines; under 10 nM with NCI/ADR-RES; under 10 nM in the assay on MDA-MB-468. The GI50 in the assay on SR, in the assay on SK-MEL-28 and with HS 578T was under 10 nM in each case. Also, the “Effect on polymerization of purified tubulin” value in assay [3] was “potent inhibitors of purified tubulin assembly”. Also, the “Rr (relative resistance), effect of βIII-tubulin on drug sensitivity” value is given as 0.6–0.7 in the assay on WT βIII and 0.6 in the assay with WT βIII (listed as (±)-3•HCI). Also, the “Cell cycle effect” value with MDA-MB-435 cells [4] is “mitotic accumulation”. Moreover, the inhibition at 1 µM in assay [2] is 60 ± 2%. In addition, the inhibition at 5 µM in assay [2] turned out to be 84 ± 3%.
On to `COc1ccccc1N(C)c1nc(C)nc2c1CC(C)C2.Cl` (racemic) [(±)-6•HCl, N-(2-Methoxyphenyl)-N,2,6-trimethyl-6,7-dihydro-5H-cyclopenta[d]pyrimidin-4-aminium chloride], for which, in the assay with A-10 cells (Table 2 data, 2′-OCH3 analog), the result was inactive.
With `Cc1nc2c(c(N(C)c3ccccc3)n1)CC(C)C2` (racemic) [(±)-7•HCl, N-Phenyl-N,2,6-trimethyl-6,7-dihydro-5H-cyclopenta[d]pyrimidin-4-aminium chloride], the IC50 in the assay with MDA-MB-435 cells [1] (setting [5]) came out at 2700 ± 300 nM.

The values are drawn from PMC2988971 (Journal of medicinal chemistry, 2010).
